{"source": "ChEMBL document CHEMBL1201862", "about": "“PubChem BioAssay data set” (2004)", "key": {"[1]": {"assay": "viability loss of HMLE_sh_eGFP cells – cell-based, luminescence, counter-screen for HMLE_sh_ECad selective toxicity project, dose response (AID 463074);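 note: HMLE human mammary epithelial cells expressing control shRNA against eGFP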", "format": "functional, Homo sapiens"}, "[2]": {"assay": "Luminescence Cell-Based Dose Retest to Confirm Inhibitors of Cancer Stem Cells. [Related pubchem assays (depositor defined):AID2717, AID2721]", "format": "functional", "conditions": "Homo sapiens"}, "[3]": {"target": "Troponin, cardiac muscle (Homo sapiens, UniProt P19429+P45379+P63316)", "assay": "Fluorescence-based biochemical high throughput dose response assay for activators of the calcium sensitivity of cardiac Regulated Thin Filaments (RTF). [Related pubchem assays (depositor defined):AID493008, AID493018, AID504382, AID504383]", "format": "protein-complex assay"}, "[4]": {"target": "T1, Fibrinogen beta chain (Homo sapiens, UniProt P02675)", "T1 sequence (P02675 whole entry, the tested form may be a part)": "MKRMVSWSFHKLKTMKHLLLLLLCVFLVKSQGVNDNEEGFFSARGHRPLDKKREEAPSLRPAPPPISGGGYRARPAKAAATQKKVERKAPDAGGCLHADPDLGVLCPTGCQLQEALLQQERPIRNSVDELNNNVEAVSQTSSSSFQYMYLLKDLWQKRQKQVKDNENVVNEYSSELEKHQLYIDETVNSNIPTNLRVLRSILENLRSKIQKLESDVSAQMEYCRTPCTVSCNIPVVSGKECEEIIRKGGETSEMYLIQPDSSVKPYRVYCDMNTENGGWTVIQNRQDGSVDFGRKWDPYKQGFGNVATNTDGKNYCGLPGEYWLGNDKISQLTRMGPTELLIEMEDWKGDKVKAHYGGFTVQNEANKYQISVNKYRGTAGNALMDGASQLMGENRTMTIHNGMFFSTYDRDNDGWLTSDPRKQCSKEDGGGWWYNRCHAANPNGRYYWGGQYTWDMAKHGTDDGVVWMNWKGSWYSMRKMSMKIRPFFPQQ", "assay": "Fluorescence polarization-based biochemical high throughput dose response assay to identify inhibitors that disrupt the binding of a cyclic peptide (Tn7) to the fibrin proteolytic product D-Dimer and fragment E complex [DD(E )]."}, "[5]": {"target": "ORF 73 (Human herpesvirus 8, UniProt O40947)", "sequence (O40947 whole entry)": "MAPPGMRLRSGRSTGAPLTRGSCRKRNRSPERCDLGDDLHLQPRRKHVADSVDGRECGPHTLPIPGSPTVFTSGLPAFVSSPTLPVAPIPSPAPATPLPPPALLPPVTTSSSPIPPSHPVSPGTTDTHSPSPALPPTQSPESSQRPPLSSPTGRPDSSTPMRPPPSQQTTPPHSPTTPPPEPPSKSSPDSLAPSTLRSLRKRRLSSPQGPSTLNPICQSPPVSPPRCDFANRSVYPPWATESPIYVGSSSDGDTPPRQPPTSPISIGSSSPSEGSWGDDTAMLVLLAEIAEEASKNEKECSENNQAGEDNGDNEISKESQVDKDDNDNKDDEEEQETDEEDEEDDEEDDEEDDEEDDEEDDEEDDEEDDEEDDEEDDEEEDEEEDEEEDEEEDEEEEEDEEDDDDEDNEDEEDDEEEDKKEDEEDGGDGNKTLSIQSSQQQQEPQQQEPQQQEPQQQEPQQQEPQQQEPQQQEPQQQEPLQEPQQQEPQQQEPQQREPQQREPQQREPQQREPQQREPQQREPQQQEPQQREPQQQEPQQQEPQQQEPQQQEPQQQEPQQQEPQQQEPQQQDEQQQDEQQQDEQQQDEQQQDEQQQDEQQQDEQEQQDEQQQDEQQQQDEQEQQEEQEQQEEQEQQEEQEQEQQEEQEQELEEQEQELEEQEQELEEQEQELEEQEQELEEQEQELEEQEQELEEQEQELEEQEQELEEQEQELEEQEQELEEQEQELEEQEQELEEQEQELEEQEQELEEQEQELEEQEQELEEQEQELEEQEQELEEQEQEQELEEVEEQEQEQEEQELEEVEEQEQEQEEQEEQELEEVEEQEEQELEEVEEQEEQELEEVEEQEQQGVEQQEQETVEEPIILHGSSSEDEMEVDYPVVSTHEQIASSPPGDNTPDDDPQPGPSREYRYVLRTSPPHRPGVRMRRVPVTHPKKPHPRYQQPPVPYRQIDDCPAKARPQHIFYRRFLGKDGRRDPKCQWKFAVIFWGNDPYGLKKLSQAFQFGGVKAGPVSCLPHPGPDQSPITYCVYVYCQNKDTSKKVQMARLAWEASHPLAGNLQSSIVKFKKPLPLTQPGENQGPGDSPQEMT", "assay": "KSHV LANA DNA-binding disruption – biochemical, fluorescence polarization, cherry-picked samples, dose response (AID 504725);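 note: fluorescence polarization of a labeled DNA duplex reporting LANA DNA binding; potency is for inhibitors that block LANA binding to the DNA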", "design": "species or system Human gammaherpesvirus 8"}, "[6]": {"tested_on": "HEK293", "assay": "optical interference in Abeta FP readout, dose response, artefact control for IDE activator project, biochemical, fluorescence polarization (AID 588442)", "format": "functional, cell-based", "conditions": "Homo sapiens"}, "[7]": {"target": "Keap1/Nrf2 (Homo sapiens, UniProt Q14145)", "sequence (Q16236 whole entry)": "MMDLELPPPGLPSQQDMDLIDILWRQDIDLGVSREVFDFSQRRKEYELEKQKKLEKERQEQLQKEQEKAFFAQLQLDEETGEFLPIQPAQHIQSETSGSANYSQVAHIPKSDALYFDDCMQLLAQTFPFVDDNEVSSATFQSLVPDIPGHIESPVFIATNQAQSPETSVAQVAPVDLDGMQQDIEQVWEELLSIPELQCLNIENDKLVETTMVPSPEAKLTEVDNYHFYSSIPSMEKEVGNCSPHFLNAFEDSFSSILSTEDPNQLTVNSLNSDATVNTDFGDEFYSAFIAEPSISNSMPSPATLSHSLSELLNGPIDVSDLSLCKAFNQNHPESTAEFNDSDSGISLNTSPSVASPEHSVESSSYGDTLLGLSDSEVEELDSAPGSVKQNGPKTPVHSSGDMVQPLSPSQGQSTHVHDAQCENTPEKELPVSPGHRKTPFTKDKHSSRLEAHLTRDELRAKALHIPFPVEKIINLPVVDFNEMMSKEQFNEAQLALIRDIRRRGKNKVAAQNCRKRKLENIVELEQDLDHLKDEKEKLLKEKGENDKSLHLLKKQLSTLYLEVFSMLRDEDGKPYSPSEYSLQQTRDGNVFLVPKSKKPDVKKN", "sequence (Q14145 whole entry)": "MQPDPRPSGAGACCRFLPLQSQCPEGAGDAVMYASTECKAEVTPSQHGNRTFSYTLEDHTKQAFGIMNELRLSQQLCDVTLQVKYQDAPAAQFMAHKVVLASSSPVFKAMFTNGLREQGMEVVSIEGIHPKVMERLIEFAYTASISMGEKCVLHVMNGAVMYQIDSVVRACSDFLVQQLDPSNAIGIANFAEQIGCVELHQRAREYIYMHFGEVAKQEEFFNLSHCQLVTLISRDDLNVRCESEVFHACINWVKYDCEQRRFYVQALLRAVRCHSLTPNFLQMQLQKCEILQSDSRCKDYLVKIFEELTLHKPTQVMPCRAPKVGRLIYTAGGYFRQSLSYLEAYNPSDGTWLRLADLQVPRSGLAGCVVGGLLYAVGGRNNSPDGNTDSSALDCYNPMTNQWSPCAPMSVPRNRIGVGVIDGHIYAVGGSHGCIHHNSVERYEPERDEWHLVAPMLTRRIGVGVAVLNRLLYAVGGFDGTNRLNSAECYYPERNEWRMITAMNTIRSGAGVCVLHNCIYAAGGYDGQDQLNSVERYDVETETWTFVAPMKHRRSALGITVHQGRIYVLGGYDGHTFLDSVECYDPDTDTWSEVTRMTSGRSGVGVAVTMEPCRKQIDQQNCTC", "assay": "disruptors of Keap1 binding to Nrf2 peptide – biochemical, fluorescence polarization, cherry-picked samples, dose response (AID 588683)"}, "[8]": {"tested_on": "HEK293", "assay": "membrane integrity loss in HEK cells – cell-based, fluorescence, cytotoxicity control for IDE activator project, dose response (AID 588440);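 note: cytotoxicity by LDH release measuring loss of membrane integrity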", "format": "functional", "conditions": "Homo sapiens"}, "[9]": {"target": "T1, Fibrinogen beta chain", "assay": "Fluorescence polarization-based biochemical high throughput dose response assay to identify inhibitors that disrupt the binding of a cyclic peptide (Tn6) to the fibrin proteolytic product D-Dimer and fragment E complex [DD(E )]."}, "[10]": {"target": "T2, Insulin-degrading enzyme (Homo sapiens, UniProt P14735)", "T2 sequence (P14735 whole entry)": "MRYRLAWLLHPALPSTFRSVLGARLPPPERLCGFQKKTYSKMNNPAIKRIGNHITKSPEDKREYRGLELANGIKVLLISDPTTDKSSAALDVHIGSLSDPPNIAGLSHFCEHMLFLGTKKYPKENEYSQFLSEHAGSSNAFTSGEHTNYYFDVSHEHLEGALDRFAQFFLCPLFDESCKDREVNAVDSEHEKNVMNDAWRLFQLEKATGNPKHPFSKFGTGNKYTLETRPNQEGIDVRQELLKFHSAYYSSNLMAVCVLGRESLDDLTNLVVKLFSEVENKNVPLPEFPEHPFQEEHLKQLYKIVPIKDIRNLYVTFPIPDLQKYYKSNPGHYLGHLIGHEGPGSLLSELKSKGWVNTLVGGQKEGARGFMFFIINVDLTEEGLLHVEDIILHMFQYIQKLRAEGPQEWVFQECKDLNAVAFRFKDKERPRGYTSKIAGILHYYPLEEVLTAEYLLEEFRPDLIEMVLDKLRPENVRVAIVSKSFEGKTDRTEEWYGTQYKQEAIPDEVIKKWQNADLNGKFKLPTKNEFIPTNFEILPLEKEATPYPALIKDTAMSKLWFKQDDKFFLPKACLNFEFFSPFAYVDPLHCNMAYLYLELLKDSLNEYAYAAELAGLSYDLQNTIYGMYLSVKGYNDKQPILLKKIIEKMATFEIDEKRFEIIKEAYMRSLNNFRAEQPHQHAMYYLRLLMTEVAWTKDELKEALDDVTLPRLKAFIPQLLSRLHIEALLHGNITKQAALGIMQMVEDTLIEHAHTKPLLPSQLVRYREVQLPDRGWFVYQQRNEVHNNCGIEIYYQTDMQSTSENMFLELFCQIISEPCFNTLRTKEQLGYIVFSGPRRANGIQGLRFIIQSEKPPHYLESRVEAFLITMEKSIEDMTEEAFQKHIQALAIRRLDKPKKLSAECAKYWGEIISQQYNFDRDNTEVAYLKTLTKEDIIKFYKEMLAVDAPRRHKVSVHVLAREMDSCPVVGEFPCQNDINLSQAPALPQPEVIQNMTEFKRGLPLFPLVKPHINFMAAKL", "assay": "cellular IDE activation of Abeta substrate cleavage – fluorescence polarization, HEK cells, dose response (AID 588439)", "format": "functional, cell-based"}, "[11]": {"tested_on": "HeLa", "assay": "viability loss in HeLa cells – cell-based, 24 h, cherry-picked samples, cytotoxicity control, dose response (AID 504726);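 note: potency for cytotoxicity as loss of luminescence signal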", "format": "functional", "conditions": "Homo sapiens"}, "[12]": {"target": "T2, Insulin-degrading enzyme", "assay": "recombinant IDE activation, cell-free – biochemical, fluorescence polarization, counter-screen for IDE activator project, dose response (AID 588681)"}, "[13]": {"assay": "restored growth of temperature-sensitive Burl-1 yeast – whole organism, S. cerevisiae, Burl-1 ts mutant, luminescence, counter-screen for SUMOylation pathway inhibitor project, dose response (AID 463199)", "format": "functional"}, "[14]": {"target": "T3, Dual specificity protein phosphatase 3 (Homo sapiens, UniProt P51452)", "T3 sequence (P51452 whole entry)": "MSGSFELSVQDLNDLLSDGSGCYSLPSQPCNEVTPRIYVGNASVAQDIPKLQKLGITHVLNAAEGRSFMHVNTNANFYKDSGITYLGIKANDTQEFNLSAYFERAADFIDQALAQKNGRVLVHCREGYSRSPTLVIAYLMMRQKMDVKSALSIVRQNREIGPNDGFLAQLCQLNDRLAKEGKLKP", "assay": "SAR VHR1 absorbance Assay for In Vitro dose response studies. [Related pubchem assays (depositor defined):AID1654, AID1661, AID1878, AID1992, AID2004]"}, "[15]": {"target": "T4, Dual specificity protein phosphatase 6 (Rattus norvegicus, UniProt Q64346)", "T4 sequence (Q64346 whole entry)": "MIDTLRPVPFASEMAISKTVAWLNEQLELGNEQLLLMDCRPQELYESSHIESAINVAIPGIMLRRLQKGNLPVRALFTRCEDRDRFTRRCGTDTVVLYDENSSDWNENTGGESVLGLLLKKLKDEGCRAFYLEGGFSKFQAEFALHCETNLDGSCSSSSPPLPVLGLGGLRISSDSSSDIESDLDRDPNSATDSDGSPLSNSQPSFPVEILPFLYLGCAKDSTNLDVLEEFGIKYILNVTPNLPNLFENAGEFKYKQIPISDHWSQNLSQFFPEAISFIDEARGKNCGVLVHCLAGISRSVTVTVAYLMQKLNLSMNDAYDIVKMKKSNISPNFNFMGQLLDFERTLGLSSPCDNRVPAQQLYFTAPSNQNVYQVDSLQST", "format": "functional"}, "[16]": {"target": "72 kDa type IV collagenase (Homo sapiens, UniProt P08253)", "sequence (P08253 whole entry)": "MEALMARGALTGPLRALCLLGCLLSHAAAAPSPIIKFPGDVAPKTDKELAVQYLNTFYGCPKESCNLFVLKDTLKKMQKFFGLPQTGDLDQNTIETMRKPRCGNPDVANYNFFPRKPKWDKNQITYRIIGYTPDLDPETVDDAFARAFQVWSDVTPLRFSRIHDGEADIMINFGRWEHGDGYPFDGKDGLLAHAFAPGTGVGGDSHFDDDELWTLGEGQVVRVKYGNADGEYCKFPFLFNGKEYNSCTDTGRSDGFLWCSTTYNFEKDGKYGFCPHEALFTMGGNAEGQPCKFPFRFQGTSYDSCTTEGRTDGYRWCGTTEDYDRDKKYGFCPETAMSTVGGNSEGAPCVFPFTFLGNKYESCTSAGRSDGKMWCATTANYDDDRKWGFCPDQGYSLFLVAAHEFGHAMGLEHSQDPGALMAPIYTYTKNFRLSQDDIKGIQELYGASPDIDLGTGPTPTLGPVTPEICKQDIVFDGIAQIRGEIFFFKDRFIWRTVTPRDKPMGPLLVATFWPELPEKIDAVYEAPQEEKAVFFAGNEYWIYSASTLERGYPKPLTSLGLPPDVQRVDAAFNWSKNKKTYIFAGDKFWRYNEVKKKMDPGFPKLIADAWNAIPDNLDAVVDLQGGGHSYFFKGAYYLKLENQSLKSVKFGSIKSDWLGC", "assay": "Dose Response validation of uHTS RPN11 inhibitor hits using a MMP-2 Fluorescence assay.", "format": "functional"}, "[17]": {"target": "Prothrombin (Bos taurus, UniProt P00735)", "assay": "thrombin protease inhibitors – biochemical, fluorescence polarization, uHTS hits, dose response (AID 602369)", "format": "functional"}, "[18]": {"target": "26S proteasome non-ATPase regulatory subunit 14 (Homo sapiens, UniProt O00487)", "sequence (O00487 whole entry)": "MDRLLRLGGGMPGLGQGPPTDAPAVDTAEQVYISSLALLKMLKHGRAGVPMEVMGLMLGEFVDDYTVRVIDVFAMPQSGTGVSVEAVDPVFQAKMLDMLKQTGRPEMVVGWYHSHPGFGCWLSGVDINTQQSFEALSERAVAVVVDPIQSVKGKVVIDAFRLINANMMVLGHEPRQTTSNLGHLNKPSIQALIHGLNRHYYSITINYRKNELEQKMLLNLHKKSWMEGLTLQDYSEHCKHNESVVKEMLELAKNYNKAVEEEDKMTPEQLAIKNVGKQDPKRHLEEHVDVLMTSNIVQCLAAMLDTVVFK", "assay": "inhibition of proteasome subunit RPN11 – biochemical, fluorescence polarization, uHTS hits, confirmation (AID 602368)", "format": "functional"}, "[19]": {"target": "T3, Dual specificity protein phosphatase 3", "assay": "VHR1 phosphatase inhibitors, primary screen, biochemical, absorbance, uHTS (AID 1654)"}, "[20]": {"target": "T5, Tyrosine-protein phosphatase non-receptor type 7 (Homo sapiens, UniProt P35236)", "T5 sequence (P35236 whole entry)": "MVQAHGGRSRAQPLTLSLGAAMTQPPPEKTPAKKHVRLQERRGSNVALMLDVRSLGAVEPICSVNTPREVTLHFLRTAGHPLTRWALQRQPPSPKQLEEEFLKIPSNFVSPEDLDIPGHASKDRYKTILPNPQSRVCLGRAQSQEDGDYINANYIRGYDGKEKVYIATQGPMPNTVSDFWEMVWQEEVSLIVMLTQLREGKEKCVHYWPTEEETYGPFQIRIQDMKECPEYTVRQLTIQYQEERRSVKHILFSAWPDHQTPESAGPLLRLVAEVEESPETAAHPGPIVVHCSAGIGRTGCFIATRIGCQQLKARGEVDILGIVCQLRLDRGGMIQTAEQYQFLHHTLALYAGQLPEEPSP", "assay": "redox-active compounds inhibiting HePTP phosphatase – biochemical, fluorescence, mechanism study (AID 2068)", "format": "functional"}, "[21]": {"target": "T3, Dual specificity protein phosphatase 3", "assay": "VHR1 phosphatase inhibitors, biochemical (AID 1878)"}, "[22]": {"target": "T4, Dual specificity protein phosphatase 6", "assay": "SAR analysis of inhibitors of MKP-3 - Set 2. [Related pubchem assays (depositor defined):AID1055, AID1661, AID425, AID553, AID566]", "format": "functional"}, "[23]": {"target": "T4, Dual specificity protein phosphatase 6", "assay": "inhibition of rat DUSP6 enzyme activity – biochemical, in vitro, primary screen (AID 425)"}, "[24]": {"target": "T3, Dual specificity protein phosphatase 3", "assay": "SAR VHR1 Fluorescent Assay for In Vitro dose response studies. [Related pubchem assays (depositor defined):AID1654, AID1661, AID1878, AID1992, AID2004, AID2070, AID2085]", "format": "functional"}, "[25]": {"target": "T5, Tyrosine-protein phosphatase non-receptor type 7", "assay": "SAR analysis of chemical inhibitors of HePTP using a Fluorescent assay - Set 2. [Related pubchem assays (depositor defined):AID1059, AID1077, AID1661, AID2085, AID521]", "format": "functional"}, "[26]": {"target": "T3, Dual specificity protein phosphatase 3", "assay": "SAR VHR1 Fluorescent Assay for In Vitro dose response studies Set 2. [Related pubchem assays (depositor defined):AID1654, AID1661, AID1878]", "format": "functional"}}, "note": "Active and inactive are the calls of the source."}
{"smiles": "O=C(Nc1ccccc1N1CCCC1)c1cccc(-c2cc3ccccc3oc2=O)c1", "values": [{"measurement": "AC50", "setting": "[1]", "result": "41.2 µM (active)"}, {"measurement": "AC50", "setting": "[2]", "result": "1.88 µM (active)"}]}
{"smiles": "COc1ccc2ccccc2c1C(O)c1nccn1C", "note": "(stereo unspecified)", "values": [{"measurement": "EC50", "setting": "[3]", "result": "7.99 µM (active)"}, {"measurement": "IC50", "setting": "[4]", "result": "> 83.3 µM (inactive)"}, {"measurement": "AC50", "setting": "[5]", "result": "3.41 µM (active)"}, {"measurement": "EC50", "setting": "[6]", "result": "> 54.7 µM (inactive)"}, {"measurement": "AC50", "setting": "[7]", "result": "1.45 µM (active)"}, {"measurement": "IC50", "setting": "[8]", "result": "> 89.2 µM (inactive)"}, {"measurement": "IC50", "setting": "[9]", "result": "13.1 µM (inactive)"}, {"measurement": "EC50", "setting": "[10]", "result": "> 54.7 µM (inactive)"}, {"measurement": "AC50", "setting": "[11]", "result": "297 µM (active)"}, {"measurement": "EC50", "setting": "[12]", "result": "> 54.7 µM (inactive)"}]}
{"smiles": "CC1CCN(CCCCOc2cccc(C(C)C)c2)CC1", "values": [{"measurement": "AC50", "setting": "[13]", "result": "68.4 µM (active)"}]}
{"smiles": "O=C(O)c1ccc(NC(=S)NC(=O)c2ccc(-c3ccc(Br)cc3)o2)cc1", "values": [{"measurement": "IC50", "setting": "[14]", "result": "3.35 µM (active)"}, {"measurement": "IC50", "setting": "[15]", "result": "55.8 µM (active)"}, {"measurement": "IC50", "setting": "[16]", "result": "3.68 µM (active)"}, {"measurement": "IC50", "setting": "[17]", "result": "60.7 µM (active)"}, {"measurement": "IC50", "setting": "[18]", "result": "15.2 µM (active)"}, {"measurement": "IC50", "setting": "[19]", "result": "6.72 µM (active)"}, {"measurement": "IC50", "setting": "[20]", "result": "227 nM (active)"}, {"measurement": "IC50", "setting": "[21]", "result": "1.88 µM (active)"}, {"measurement": "IC50", "setting": "[22]", "result": "> 100 µM (inactive)"}, {"measurement": "IC50", "setting": "[23]", "result": "76.7 µM (active)"}, {"measurement": "IC50", "setting": "[24]", "result": "3.63 µM (active)"}, {"measurement": "IC50", "setting": "[25]", "result": "314 nM (active)"}, {"measurement": "IC50", "setting": "[26]", "result": "226 nM (active)"}]}
